Laboratory results taken from US5023244A, “Anti-dementia agents” (Hoechst Japan Limited, priority 1986, dated 1991).

Tests used:
[1] = Passive avoidance task, memory retention test after cycloheximide-induced amnesia (retrieval process); assay type: in vivo, ICR male mice; details: cycloheximide 120 mg/kg i.p., test 24 h after training
Source text: The passive avoidance task and the induction of amnesia by cycloheximide are experimental methods usually employed (Naoki Yamazaki et al.: Jap. J. Psychopharmacol., 3, 127 (1983)). The detailed method is described below. The apparatus used for the experiment was a plastic box 24 cm in height, 20 cm in width and 23 cm in length with a floor of iron grids at the corner of which was placed a platform 8 cm in length, 8 cm in width and 1.5 cm in height. When a mouse placed in the box was subjected to electric stimulus with a current of 0.3 mA for a period of approximately 3 seconds, the mouse escaped onto the platform. After subsequent non-stimulus period of 8 seconds, the mouse was subjected to the electric stimulus for an additional period of approximately 5 seconds. By this method, the mouse acquired memory of aversion that the electric stimulus would be delivered whenever the animal got off the platform, thus the passive avoidance task was established. The learning was judged to be established if the mouse placed on the platform under non-stimulus condition immediately after the training remained on it for 30 seconds or longer.
The test to observe whether or not a mouse retained memory of aversion was performed 24 hours after the training and percent memory retention was calculated according to the following equation: [formula]
In order to induce deficits of memory, the animal was intraperitoneally administered 15 min prior to the training with a physiological saline solution of cycloheximide at a dose of 120 mg/kg., and then subjected to the electric stimulus for training.
A memory retention test was performed 24 hours after training. An intraperitoneal administration was done 75 min. prior to the test respectively for L-N^6 -phenylisopropyladenosine (Compound A) and N^6 -cyclohexyladenosine (Compound C), 60 min. prior to the test respectively for 2-chloroadenosine(Compound B) and adenosine-5'-(N-cyclopropyl)carboxamide (Compound E) and 45 min. prior to the test for adenosine-5'-(N-ethyl)carboxamide (Compound D).

[2] = Acute toxicity (LD50) in mice by intraperitoneal administration; details: mouse, in vivo, ip
[3] = 100 μg/kg i.p., 75 min prior to test

CCNC(=O)[C@H]1O[C@@H](n2cnc3c(N)ncnc32)[C@H](O)[C@@H]1O [Compound D, adenosine-5'-(N-ethyl)carboxamide]
Percent memory retention ([1]; 3 μg/kg i.p., 45 min prior to test): 39.3%
Percent memory retention ([1]; 7 μg/kg i.p., 45 min prior to test): 42.3%
Percent memory retention ([1]; 10 μg/kg i.p., 45 min prior to test): 51.4%

Nc1ncnc2c1ncn2[C@@H]1O[C@H](C(=O)NC2CC2)[C@@H](O)[C@H]1O [Compound E, adenosine-5'-(N-cyclopropyl)carboxamide]
Percent memory retention ([1]; 1 μg/kg i.p., 60 min prior to test): 25.0%
Percent memory retention ([1]; 3 μg/kg i.p., 60 min prior to test): 40.0%
Percent memory retention ([1]; 10 μg/kg i.p., 60 min prior to test): 62.1%
Percent memory retention ([1]; 30 μg/kg i.p., 60 min prior to test): 66.7%

OC[C@H]1O[C@@H](n2cnc3c(NC4CCCCC4)ncnc32)[C@H](O)[C@@H]1O [Compound C, N^6 -cyclohexyladenosine]
Percent memory retention ([1]; 10 μg/kg i.p., 75 min prior to test): 14.8%
Percent memory retention [1, 3]: 20.8%
Percent memory retention ([1]; 300 μg/kg i.p., 75 min prior to test): 66.7%

C[C@H](Cc1ccccc1)Nc1ncnc2c1ncn2[C@@H]1O[C@H](CO)[C@@H](O)[C@H]1O [Compound A, L-N^6 -phenylisopropyladenosine]
LD50 [2]: 31 mg/kg
Percent memory retention ([1]; 50 μg/kg i.p., 75 min prior to test): 36.8%
Percent memory retention [1, 3]: 55.0%

Nc1nc(Cl)nc2c1ncn2[C@@H]1O[C@H](CO)[C@@H](O)[C@H]1O [Compound B, 2-chloroadenosine]
LD50 [2]: 45 mg/kg
Percent memory retention ([1]; 500 μg/kg i.p., 60 min prior to test): 35.0%
Percent memory retention ([1]; 1000 μg/kg i.p., 60 min prior to test): 52.4%
